Source: patent US6770596B1, “Fused tricyclic compounds, process for their preparation, and herbicidal compositions containing them” (Ishihara Sangyo Kaisha Ltd., priority 2002, dated 2004)

Assays:
Format in all cases: in vivo
[1] = tested on: redroot pigweed (Amaranthus retroflexus, AMR); experiment: Pre-emerge test, redroot pigweed; conditions: 250 g ai/ha, 14 days after application, rating scale 0-100 (0 no damage, 100 complete death)
Outline: (§1)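 Read-out is a visual 0–100 phytotoxicity rating taken 14 days after treatment, where 100 means all plants dead. Compounds were applied pre-emergence in acetone by track sprayer at rates from 8 to 1000 g ai/ha onto pots sown the previous day.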

[2] = tested on: velvetleaf (Abutilon theophrasti, ABT); experiment: Pre-emerge test, velvetleaf; conditions: 250 g ai/ha, 14 days after application, rating scale 0-100 (0 no damage, 100 complete death)
Outline: as §1

[3] = tested on: sicklepod (Cassia obtusifolia, CAO); experiment: Pre-emerge test, sicklepod; conditions: 250 g ai/ha, 14 days after application, rating scale 0-100 (0 no damage, 100 complete death)
Outline: as §1

[4] = tested on: ivyleaf morningglory (Ipomoea hederacea, IPH); experiment: Pre-emerge test, ivyleaf morningglory; conditions: 250 g ai/ha, 14 days after application, rating scale 0-100 (0 no damage, 100 complete death)
Outline: as §1

[5] = tested on: lambsquarters (Chenopodium album, CHA); experiment: Pre-emerge test, lambsquarters; conditions: 250 g ai/ha, 14 days after application, rating scale 0-100 (0 no damage, 100 complete death)
Outline: as §1

[6] = tested on: common ragweed (Ambrosia artemisiifolia L., AML); experiment: Pre-emerge test, common ragweed; conditions: 250 g ai/ha, 14 days after application, rating scale 0-100 (0 no damage, 100 complete death)
Outline: as §1

[7] = tested on: cocklebur (Xanthium strumariunt, XAS); experiment: Pre-emerge test, cocklebur; conditions: 250 g ai/ha, 14 days after application, rating scale 0-100 (0 no damage, 100 complete death)
Outline: as §1

[8] = tested on: green foxtail (Setaria viridis, SEV); experiment: Pre-emerge test, green foxtail; conditions: 250 g ai/ha, 14 days after application, rating scale 0-100 (0 no damage, 100 complete death)
Outline: as §1

[9] = tested on: barnyardgrass (Echinachloa crus-galli, ECC); experiment: Pre-emerge test, barnyardgrass; conditions: 250 g ai/ha, 14 days after application, rating scale 0-100 (0 no damage, 100 complete death)
Outline: as §1

[10] = tested on: johnsongrass (Sorghum halepense, SOH); experiment: Pre-emerge test, johnsongrass; conditions: 250 g ai/ha, 14 days after application, rating scale 0-100 (0 no damage, 100 complete death)
Outline: as §1

[11] = tested on: large crabgrass (Digitaria sanguinalis, DIS); experiment: Pre-emerge test, large crabgrass; conditions: 250 g ai/ha, 14 days after application, rating scale 0-100 (0 no damage, 100 complete death)
Outline: as §1

[12] = tested on: field corn (Zea mays L., var. Dekalb 535, CORN); experiment: Pre-emerge test, crop damage field corn
Outline: (§2)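 Using a track sprayer with flat fan nozzle, acetone solutions were applied at 8–1000 g ai/ha to sandy loam pots sown one day before. Plant injury was rated visually 0–100 after 14 days.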

[13] = tested on: soybean (Glycine max L., var. Pella 86, SOY); experiment: Pre-emerge test, crop damage soybean
Outline: as §2

[14] = tested on: upland rice (Oryza sp., var.Tebonnet, RICE); experiment: Pre-emerge test, crop damage upland rice
Outline: as §2

[15] = tested on: wheat (Triticum aestivum); experiment: Pre-emerge test, crop damage wheat
Outline: as §2

[16] = tested on: redroot pigweed (Amaranthus retroflexus, AMR); experiment: Post-emerge test, redroot pigweed; conditions: 250 g ai/ha, 14 days after application, rating scale 0-100 (0 no damage, 100 complete death)
Outline: (§3)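 A greenhouse foliar screen: the compound was applied over the top of 2-3 leaf plants by a flat-fan track sprayer at 8 to 1000 g ai/ha. It was delivered in acetone at 187 l/ha, with 0.25% v/v non-ionic surfactant added for leaf wetting. Injury was judged 14 days on, from 0 (none) to 100 (complete kill).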

[17] = tested on: velvetleaf (Abutilon theophrasti, ABT); experiment: Post-emerge test, velvetleaf; conditions: 250 g ai/ha, 14 days after application, rating scale 0-100 (0 no damage, 100 complete death)
Outline: as §3

[18] = tested on: sicklepod (Cassia obtusifolia, CAO); experiment: Post-emerge test, sicklepod; conditions: 250 g ai/ha, 14 days after application, rating scale 0-100 (0 no damage, 100 complete death)
Outline: as §3

[19] = tested on: ivyleaf morningglory (Ipomoea hederacea, IPH); experiment: Post-emerge test, ivyleaf morningglory; conditions: 250 g ai/ha, 14 days after application, rating scale 0-100 (0 no damage, 100 complete death)
Outline: as §3

[20] = tested on: lambsquarters (Chenopodium album, CHA); experiment: Post-emerge test, lambsquarters; conditions: 250 g ai/ha, 14 days after application, rating scale 0-100 (0 no damage, 100 complete death)
Outline: as §3

[21] = tested on: common ragweed (Ambrosia artemisiifolia L., AML); experiment: Post-emerge test, common ragweed; conditions: 250 g ai/ha, 14 days after application, rating scale 0-100 (0 no damage, 100 complete death)
Outline: as §3

[22] = tested on: cocklebur (Xanthium strumariunt, XAS); experiment: Post-emerge test, cocklebur; conditions: 250 g ai/ha, 14 days after application, rating scale 0-100 (0 no damage, 100 complete death)
Outline: as §3

[23] = tested on: green foxtail (Setaria viridis, SEV); experiment: Post-emerge test, green foxtail; conditions: 250 g ai/ha, 14 days after application, rating scale 0-100 (0 no damage, 100 complete death)
Outline: as §3

[24] = tested on: barnyardgrass (Echinachloa crus-galli, ECC); experiment: Post-emerge test, barnyardgrass; conditions: 250 g ai/ha, 14 days after application, rating scale 0-100 (0 no damage, 100 complete death)
Outline: as §3

[25] = tested on: johnsongrass (Sorghum halepense, SOH); experiment: Post-emerge test, johnsongrass; conditions: 250 g ai/ha, 14 days after application, rating scale 0-100 (0 no damage, 100 complete death)
Outline: as §3

[26] = tested on: large crabgrass (Digitaria sanguinalis, DIS); experiment: Post-emerge test, large crabgrass; conditions: 250 g ai/ha, 14 days after application, rating scale 0-100 (0 no damage, 100 complete death)
Outline: as §3

[27] = tested on: field corn (Zea mays L., var. Dekalb 535, CORN); experiment: Post-emerge test, crop damage field corn
Outline: as §3

[28] = tested on: soybean (Glycine max L., var. Pella 86, SOY); experiment: Post-emerge test, crop damage soybean
Outline: as §3

[29] = tested on: upland rice (Oryza sp., var.Tebonnet, RICE); experiment: Post-emerge test, crop damage upland rice
Outline: as §3

[30] = tested on: wheat (Triticum aestivum); experiment: Post-emerge test, crop damage wheat
Outline: as §3

[31] = pre-emerge, 250 g ai/ha, 14 days after application, rating scale 0-100 (0 no damage, 100 complete death)
[32] = post-emerge, 250 g ai/ha, 14 days after application, rating scale 0-100 (0 no damage, 100 complete death)
[33] = var. Dekalb 535, Zea mays (field corn), in vivo, 14 days
[34] = var. Pella 86, Glycine max (soybean), in vivo, 14 days
[35] = var. Tebonnet, Oryza sp. (upland rice), in vivo, 14 days
[36] = Triticum aestivum (wheat), in vivo, 14 days

| SMILES | Pre-emerge Herbicidal Activity AMR (phytotoxicity rating) [1] | Pre-emerge Herbicidal Activity ABT (phytotoxicity rating) [2] | Pre-emerge Herbicidal Activity CAO (phytotoxicity rating) [3] | Pre-emerge Herbicidal Activity IPH (phytotoxicity rating) [4] | Pre-emerge Herbicidal Activity CHA (phytotoxicity rating) [5] | Pre-emerge Herbicidal Activity AML (phytotoxicity rating) [6] | Pre-emerge Herbicidal Activity XAS (phytotoxicity rating) [7] | Pre-emerge Herbicidal Activity SEV (phytotoxicity rating) [8] | Pre-emerge Herbicidal Activity ECC (phytotoxicity rating) [9] | Pre-emerge Herbicidal Activity SOH (phytotoxicity rating) [10] | Pre-emerge Herbicidal Activity DIS (phytotoxicity rating) [11] | Post-emerge Herbicidal Activity AMR (phytotoxicity rating) [16] | Post-emerge Herbicidal Activity ABT (phytotoxicity rating) [17] | Post-emerge Herbicidal Activity CAO (phytotoxicity rating) [18] | Post-emerge Herbicidal Activity IPH (phytotoxicity rating) [19] | Post-emerge Herbicidal Activity CHA (phytotoxicity rating) [20] | Post-emerge Herbicidal Activity AML (phytotoxicity rating) [21] | Post-emerge Herbicidal Activity XAS (phytotoxicity rating) [22] | Post-emerge Herbicidal Activity SEV (phytotoxicity rating) [23] | Post-emerge Herbicidal Activity ECC (phytotoxicity rating) [24] | also measured |
| --- | --- | --- | --- | --- | --- | --- | --- | --- | --- | --- | --- | --- | --- | --- | --- | --- | --- | --- | --- | --- | --- |
| Cc1nn(-c2c(F)cc3c4c2NC(=O)C(C)N4C(=O)CO3)c(=O)n1C(F)F (stereo not drawn) [1-74] | 98 | 100 | 75 | 95 | 99 | 80 | 98 | 100 | 98 | 99 | 99 | 60 | 55 | 0 | 0 | 65 | 55 | 10 | 65 | 0 | Pre-emerge crop damage CORN (phytotoxicity rating) [12, 31]: 100; Pre-emerge crop damage SOY (phytotoxicity rating) [13, 31]: 95; Pre-emerge crop damage RICE (phytotoxicity rating) [14, 31]: 99; Pre-emerge crop damage WHEAT (phytotoxicity rating) [15, 31]: 98; Post-emerge Herbicidal Activity SOH (phytotoxicity rating) [25]: 0; Post-emerge Herbicidal Activity DIS (phytotoxicity rating) [26]: 0; Post-emerge crop damage CORN (phytotoxicity rating) [27, 32]: 0; Post-emerge crop damage SOY (phytotoxicity rating) [28, 32]: 0; Post-emerge crop damage RICE (phytotoxicity rating) [29, 32]: 0; Post-emerge crop damage WHEAT (phytotoxicity rating) [30, 32]: 0 |
| Cn1nc(-c2c(F)cc3c4c2NC(=O)CN4C(=O)CO3)c(Cl)c1OC(F)F [1-25, 8-[4-Chloro-5-(difluoromethoxy)-1-methyl-1H-pyrazole-3-yl)-9-fluoro-5H-pyrazino[1,2,3-de]-1,4-benzoxazine-3,6(2H, 7H)-dione] | 100 | 100 | 100 | 100 | 100 | 100 | 95 | 100 | 100 | 100 | 100 | 100 | 100 | 100 | 100 | 100 | 99 | 100 | 100 | 95 | Pre-emerge crop damage CORN (phytotoxicity rating) [12, 33]: 99; Pre-emerge crop damage SOY (phytotoxicity rating) [13, 34]: 40; Pre-emerge crop damage RICE (phytotoxicity rating) [14, 35]: 85; Pre-emerge crop damage WHEAT (phytotoxicity rating) [15, 36]: 85; Post-emerge Herbicidal Activity SOH (phytotoxicity rating) [25]: 60; Post-emerge Herbicidal Activity DIS (phytotoxicity rating) [26]: 60; Post-emerge crop damage CORN (phytotoxicity rating) [27, 33]: 35; Post-emerge crop damage SOY (phytotoxicity rating) [28, 34]: 100; Post-emerge crop damage RICE (phytotoxicity rating) [29, 35]: 100; Post-emerge crop damage WHEAT (phytotoxicity rating) [30, 36]: 60 |
| O=C1CN2C(=O)COc3cc(F)c(-c4ncc(C(F)(F)F)cc4Cl)c(c32)N1 [1-63] | 100 | 100 | 99 | 100 | 100 | 100 | 100 | 100 | 100 | 100 | 100 | 100 | 100 | 50 | 100 | 100 | 45 | 100 | 100 | 100 | Pre-emerge crop damage CORN (phytotoxicity rating) [12, 31]: 100; Pre-emerge crop damage SOY (phytotoxicity rating) [13, 31]: 50; Pre-emerge crop damage RICE (phytotoxicity rating) [14, 31]: 100; Pre-emerge crop damage WHEAT (phytotoxicity rating) [15, 31]: 90; Post-emerge Herbicidal Activity SOH (phytotoxicity rating) [25]: 99; Post-emerge Herbicidal Activity DIS (phytotoxicity rating) [26]: 80; Post-emerge crop damage CORN (phytotoxicity rating) [27, 32]: 20; Post-emerge crop damage SOY (phytotoxicity rating) [28, 32]: 100; Post-emerge crop damage RICE (phytotoxicity rating) [29, 32]: 75; Post-emerge crop damage WHEAT (phytotoxicity rating) [30, 32]: 30 |
| CC1C(=O)N(C)c2c(-c3nn(C)c(OC(F)F)c3Cl)c(F)cc3c2N1C(=O)CO3 (stereo not drawn) [1-62] | 65 | 90 | 50 | 60 | 100 | 35 | 25 | 100 | 90 | 90 | 50 | 99 | 80 | 35 | 75 | 100 | 90 | 65 | 60 | 30 | Pre-emerge crop damage CORN (phytotoxicity rating) [12, 31]: 10; Pre-emerge crop damage SOY (phytotoxicity rating) [13, 31]: 10; Pre-emerge crop damage RICE (phytotoxicity rating) [14, 31]: 50; Pre-emerge crop damage WHEAT (phytotoxicity rating) [15, 31]: 45; Post-emerge Herbicidal Activity SOH (phytotoxicity rating) [25]: 0; Post-emerge Herbicidal Activity DIS (phytotoxicity rating) [26]: 30; Post-emerge crop damage CORN (phytotoxicity rating) [27, 32]: 0; Post-emerge crop damage SOY (phytotoxicity rating) [28, 32]: 0; Post-emerge crop damage RICE (phytotoxicity rating) [29, 32]: 70; Post-emerge crop damage WHEAT (phytotoxicity rating) [30, 32]: 50 |
